Assay results published in patent publication US8476301B2, “Pyrrolidin-3-ylacetic acid derivative” (Eisai R&D Management Co., Ltd., priority 2011, dated 2013).

Target: T1, CX3CR1 (Homo sapiens, UniProt P49238)
T1 construct: expressed in transfected cells; host or cells: B300 cells
T1 sequence (P49238 1-355): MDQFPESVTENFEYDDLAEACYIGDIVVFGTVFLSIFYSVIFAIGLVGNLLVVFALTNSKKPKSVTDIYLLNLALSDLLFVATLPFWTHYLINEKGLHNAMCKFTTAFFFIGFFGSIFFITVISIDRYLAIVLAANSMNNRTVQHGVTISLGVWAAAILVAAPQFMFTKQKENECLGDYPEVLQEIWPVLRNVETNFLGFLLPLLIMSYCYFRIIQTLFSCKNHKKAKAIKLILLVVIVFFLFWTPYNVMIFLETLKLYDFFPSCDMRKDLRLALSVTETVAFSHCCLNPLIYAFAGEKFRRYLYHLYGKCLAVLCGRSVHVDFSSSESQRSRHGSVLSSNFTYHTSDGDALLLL
Assay: Inhibition of cell migration in fractalkine-induced chemotaxis assay
Format: cell-based
Details: CX3CR1-expressing B300 cells preincubated with test compound 30 minutes; fractalkine 0.3 nM in lower wells; Transwell, 3.5 hours at 37° C.; migrated cells counted with CellTiter; read-out: IC50 (nM), 50% inhibitory concentration on fractalkine-induced cell migration
Protocol: The inhibitory effects of the example compounds on fractalkine-induced cell migration were examined using CX3CR1-transfected B300 cells
After equilibrating the Transwell plate (24-well clusters, pore size: 5 μm, manufactured by Corning Incorporated), a fractalkine solution (0.3 nM, manufactured by R&D Systems, Inc.) was added to the lower wells. CX3CR1-expressing B300 cells which were preincubated with the test compound (0.001, 0.003, 0.01 or 0.03 μM) for 30 minutes were placed in the upper layer wells, followed by incubation under the condition of 5% CO2 for 3.5 hours at 37° C. The number of cells migrated to the lower wells was evaluated using CellTiter (manufactured by Promega Corporation).
The inhibitory rate of the test compound on fractalkine-induced cell migration was calculated by the following formula, where [A] is the number of migrated cells in the presence of both fractalkine and the test compound, [B] is the number of migrated cells in the presence of fractalkine and in the absence of the test compound, and [C] is the number of migrated cells in the absence of both fractalkine and the test compound; the 50% inhibitory concentration (IC50) was calculated based on the inhibitory rate. Inhibitory rate (%)=[1−{(A−C)/(B−C)}]×100 (2) Results

IC50	SMILES
16 nM	C[C@H]1CN(Cc2c(Cl)cccc2Cl)C[C@@]1(CC(=O)O)C(=O)N[C@H]1CCN(CC2=CCCCC2)C1 (relative stereo) [Example 9]
31 nM	Cc1cccc(Cl)c1CN1C[C@H](C)[C@](CC(=O)O)(C(=O)NC2CCN(CC3=CCCC3)CC2)C1 [Example 8, 2-[(3S,4R)-1-[(2-Chloro-6-methylphenyl)methyl]-3-{[(1-cyclopent-1-en-1-ylmethyl)piperidin-4-yl]carbamoyl}-4-methylpyrrolidin-3-yl]acetic acid]
6 nM	C[C@H]1CN(Cc2c(Cl)cccc2Cl)C[C@@]1(CC(=O)O)C(=O)NC1CCN(CC2=CCCCC2)CC1 [Example 11, 2-[(3S,4R)-3-{[(1-Cyclohex-1-en-1-ylmethyl)piperidin-4-yl]carbamoyl}-1-[(2,6-dichlorophenyl)methyl]-4-methylpyrrolidin-3-yl]acetic acid]
